Experimental findings from patent publication US12569467B2, “Small molecules that treat or prevent viral infections” (priority 2022, dated 2026) are described below.

The structures appear in SMILES notation.

The subject of the assay is SARS-CoV-2 Spike protein pseudotyped lentiviral particles. In words: microbe, parasite or virus in culture. Particulars: Severe acute respiratory syndrome coronavirus 2, HEK293, read-out: half-maximal effective concentration (EC50), neutralization of SARS-CoV2 infection. It is filed as cell-based.

On to `O=C1Nc2ccccc2/C1=C\c1ccc(-c2cc(C(F)(F)F)cc(C(F)(F)F)c2)o1` [CD04872SC, 3-({5-[3,5-di(trifluoromethyl)phenyl]-2-furyl}methylidene)indolin-2-one], for which the EC50 was 248 µM.
